A word on the inhibition: it is the drop in the measured response relative to a control, in per cent. As a reminder, the IC50 is the concentration needed to halve the response being measured.

Structures are written as SMILES.

One test has as its system A-375. Description: Cytotoxicity in human A375 cells assessed as cell viability at 10 uM incubated for 48 hrs by MTT assay. Type of test: functional. The settings on record: A-375, 48 h, read-out: Activity.
Test [1] deals with T1, Indoleamine 2,3-dioxygenase 1 (Homo sapiens, UniProt P14902). Description: Inhibition of human recombinant IDO1 assessed as reduction in kynurenine production at 1 uM using L-tryptophan incubated for 60 mins by Ehrlich's reagent based assay.
Target sequence in this assay (P14902 whole entry, looked up): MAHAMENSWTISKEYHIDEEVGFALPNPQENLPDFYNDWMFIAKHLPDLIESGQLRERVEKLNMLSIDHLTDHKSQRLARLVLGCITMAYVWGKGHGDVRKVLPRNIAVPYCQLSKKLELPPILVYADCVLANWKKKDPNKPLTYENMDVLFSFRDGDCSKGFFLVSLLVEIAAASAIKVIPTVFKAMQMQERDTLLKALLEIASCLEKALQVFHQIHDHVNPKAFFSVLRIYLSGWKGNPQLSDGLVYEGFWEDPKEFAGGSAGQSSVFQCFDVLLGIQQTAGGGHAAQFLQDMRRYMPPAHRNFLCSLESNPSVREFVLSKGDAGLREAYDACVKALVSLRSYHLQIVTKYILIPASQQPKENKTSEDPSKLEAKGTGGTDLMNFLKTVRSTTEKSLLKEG
In test [2] the target is T1, Indoleamine 2,3-dioxygenase 1. Kind of test: Inhibition of human recombinant IDO1 assessed as reduction in kynurenine production using L-tryptophan incubated for 60 mins by Ehrlich's reagent based assay.
Target sequence in this assay (P14902 whole entry): as the sequence (P14902 whole entry, looked up) above

In the case of `Cn1cc(C[C@H](N)C(=O)O)c2ccccc21` [(L)-1-METHYLTRYPTOPHAN], the viability at 10 µM in the test with A-375 was 100%.
For `O=C(CO)NCc1cnc2scc(-c3ccc(Br)cc3)n12`, in test [1], the inhibition turned out to be 48%. The viability at 10 µM in the test with A-375 is 97%.
Regarding `O=C(COC(=O)Cc1ccccc1)NCc1cnc2scc(-c3ccc(Br)cc3)n12`, the inhibition in test [1] was determined as 72%. Also, the viability at 10 µM with A-375 turned out to be 98%. Moreover, the IC50 in test [2] came out at 580 nM.
Regarding `CN(CC(=O)NCc1cnc2scc(-c3ccc(Br)cc3)n12)C(=O)Cc1ccc(C#N)cc1`, the inhibition in test [1] is 18%. In addition, the viability at 10 µM in the test with A-375 was found to be 92%.
`N#Cc1cccc(CC(=O)OCC(=O)NCc2cnc3scc(-c4ccc(Br)cc4)n23)c1`: the inhibition in test [1] came out at 29%. In addition, in the test on A-375, the viability at 10 µM came to 97%.
Take `CN(CC(=O)NCc1cnc2scc(-c3ccc(Br)cc3)n12)C(=O)Cc1cccc(O)c1`: the inhibition in test [1] stood at 63%. Moreover, in the test with A-375, the viability at 10 µM was 100%. Further, the IC50 in test [2] is 450 nM.
On to `N#Cc1ccc(CC(=O)OCC(=O)NCc2cnc3scc(-c4ccc(Br)cc4)n23)cc1`, for which the inhibition in test [1] is 69%. Further, in the test with A-375, the viability at 10 µM worked out at 100%. Besides, the IC50 in test [2] was found to be 340 nM.
For `CN(CC(=O)NCc1cnc2scc(-c3ccc(Br)cc3)n12)C(=O)Cc1ccc(O)cc1`, the inhibition in test [1] is 55%. In the test on A-375, the viability at 10 µM worked out at 91%.
As for `O=C(COC(=O)Cc1ccc(Cl)cc1)NCc1cnc2scc(-c3ccc(Br)cc3)n12`, the inhibition in test [1] amounted to 32%. Also, in the test on A-375, the viability at 10 µM was 100%.
Turning to `O=C(COC(=O)Cc1cccc(Cl)c1)NCc1cnc2scc(-c3ccc(Br)cc3)n12`, the inhibition in test [1] amounted to 39%. Besides, the viability at 10 µM in the test on A-375 was found to be 100%.
For the molecule `O=C(COC(=O)Cc1ccccc1O)NCc1cnc2scc(-c3ccc(Br)cc3)n12`, the inhibition in test [1] stood at 73%. In the test on A-375, the viability at 10 µM stood at 100%. The half-maximal inhibitory concentration (IC50) in test [2] was determined as 870 nM.
On to `O=C(COC(=O)Cc1ccc([N+](=O)[O-])cc1)NCc1cnc2scc(-c3ccc(Br)cc3)n12`, for which the inhibition in test [1] was found to be 39%. Also, in the test on A-375, the viability at 10 µM stood at 100%.
In the case of `CN(CC(=O)NCc1cnc2scc(-c3ccc(Br)cc3)n12)C(=O)Cc1ccccc1`, the inhibition in test [1] amounted to 62%. Moreover, the viability at 10 µM in the test with A-375 worked out at 100%. Also, in test [2], the IC50 stood at 690 nM.
With `CN(CC(=O)NCc1cnc2scc(-c3ccc(Br)cc3)n12)C(=O)Cc1ccc([N+](=O)[O-])cc1`, the inhibition in test [1] is 66%. Moreover, the viability at 10 µM in the test with A-375 was 100%. The IC50 in test [2] turned out to be 810 nM.
Consider `N[C@H](C(=O)NCC(=O)NCc1cnc2scc(-c3ccc(Br)cc3)n12)c1ccc(O)cc1`, for which the inhibition in test [1] amounted to 0%. For the same molecule, the viability at 10 µM in the test on A-375 stood at 100%.
Take `CN(CC(=O)NCc1cnc2scc(-c3ccc(Br)cc3)n12)C(=O)Cc1cccc(Cl)c1`: the inhibition in test [1] was determined as 39%. The viability at 10 µM in the test on A-375 was found to be 83%.
Taken in the same sequence, the figures for `CN(CC(=O)NCc1cnc2scc(-c3ccc(Br)cc3)n12)C(=O)Cc1ccc(Cl)cc1` were 51% and 64%.
For `COc1cccc(C(=O)N(C)CC(=O)NCc2cnc3scc(-c4ccc(Br)cc4)n23)c1` the same measures were 48% and 98%.
Taken in the same sequence, the figures for `O=C(COC(=O)Cc1ccccc1Cl)NCc1cnc2scc(-c3ccc(Br)cc3)n12` were 46% and 100%.
In the case of `O=C(CNC(=O)Cc1ccccc1)NCc1cnc2scc(-c3ccc(Br)cc3)n12`, in test [1], the inhibition amounted to 46%. For the same molecule, the viability at 10 µM with A-375 amounted to 100%.
Taken in the same sequence, the figures for `O=C(COC(=O)Cc1ccccc1[N+](=O)[O-])NCc1cnc2scc(-c3ccc(Br)cc3)n12` were 41% and 100%.
In the case of `CN(CC(=O)NCc1cnc2scc(-c3ccc(Br)cc3)n12)C(=O)Cc1cccc([N+](=O)[O-])c1`, the inhibition in test [1] stood at 65%. Besides, the viability at 10 µM in the test on A-375 was 93%. The IC50 in test [2] was 630 nM.
Turning to `COc1ccc(C(=O)N(C)CC(=O)NCc2cnc3scc(-c4ccc(Br)cc4)n23)cc1`, in test [1], the inhibition came to 49%. The viability at 10 µM with A-375 stood at 82%.
As for `CN(CC(=O)NCc1cnc2scc(-c3ccc(Br)cc3)n12)C(=O)Cc1ccccc1O`, in test [1], the inhibition was 0%. For the same molecule, the viability at 10 µM in the test with A-375 stood at 88%.
For `CN(CC(=O)NCc1cnc2scc(-c3ccc(Br)cc3)n12)C(=O)Cc1ccc(O)c(O)c1` the same measures were 34% and 99%.
For `CN(CC(=O)NCc1cnc2scc(-c3ccc(Br)cc3)n12)C(=O)Cc1cccc(C#N)c1` the same measures were 0% and 90%.
For `N[C@H](C(=O)NCC(=O)NCc1cnc2scc(-c3ccc(Br)cc3)n12)c1ccccc1` the same measures were 10% and 96%.
Regarding `CN(CC(=O)NCc1cnc2scc(-c3ccc(Br)cc3)n12)C(=O)c1ccc(C#N)cc1`, in test [1], the inhibition came out at 47%. In addition, in the test with A-375, the viability at 10 µM turned out to be 87%.
For `CN(CC(=O)NCc1cnc2scc(-c3ccc(Br)cc3)n12)C(=O)c1ccccc1` the same measures were 50% and 96%.
In the case of `N#Cc1ccc(NC(=O)NCc2cnc3scc(-c4ccc(Br)cc4)n23)cc1`, in test [1], the inhibition was 97%. In the test on A-375, the viability at 10 µM was 99%. The IC50 in test [2] was found to be 80 nM.
With `CN(CC(=O)NCc1cnc2scc(-c3ccc(Br)cc3)n12)C(=O)Cc1ccccc1Cl`, the inhibition in test [1] is 41%. For the same molecule, the viability at 10 µM in the test on A-375 came to 71%.
As to `CN(CC(=O)NCc1cnc2scc(-c3ccc(Br)cc3)n12)C(=O)c1ccc([N+](=O)[O-])cc1`, the inhibition in test [1] was 45%. Moreover, the viability at 10 µM with A-375 amounted to 100%.
On to `NS(=O)(=O)NCCNc1nonc1/C(=N/O)Nc1ccc(F)c(Br)c1` [EPACADOSTAT], for which the viability at 10 µM with A-375 came out at 100%.
With `O=C(COC(=O)Cc1cccc([N+](=O)[O-])c1)NCc1cnc2scc(-c3ccc(Br)cc3)n12`, in test [1], the inhibition amounted to 50%. The viability at 10 µM in the test on A-375 was found to be 100%.
For `CN(CC(=O)NCc1cnc2scc(-c3ccc(Br)cc3)n12)C(=O)Cc1ccccc1[N+](=O)[O-]`, the inhibition in test [1] is 67%. In addition, in the test on A-375, the viability at 10 µM is 92%. Further, the IC50 in test [2] amounted to 730 nM.
As to `O=C(COC(=O)Cc1ccc(O)c(O)c1)NCc1cnc2scc(-c3ccc(Br)cc3)n12`, the inhibition in test [1] was found to be 40%. Further, the viability at 10 µM with A-375 turned out to be 99%.
For the molecule `O=C(COC(=O)Cc1ccc(O)cc1)NCc1cnc2scc(-c3ccc(Br)cc3)n12`, the inhibition in test [1] was 89%. In addition, the viability at 10 µM in the test on A-375 was 100%. Besides, the IC50 in test [2] was 200 nM.
Turning to `O=C(COC(=O)Cc1cccc(O)c1)NCc1cnc2scc(-c3ccc(Br)cc3)n12`, the inhibition in test [1] amounted to 59%. In addition, the viability at 10 µM with A-375 was 100%.
Taken in the same sequence, the figures for `CC(=O)N(C)CC(=O)NCc1cnc2scc(-c3ccc(Br)cc3)n12` were 21% and 98%.

Values taken from ChEMBL document CHEMBL4184248, “A multicomponent approach in the discovery of indoleamine 2,3-dioxygenase 1 inhibitors: Synthesis, biological investigation and docking studies” (Bioorg Med Chem Lett, 2018).
